# Columns and labels:
# Assay in all cases: relative viability (nuclei count vs DMSO), 5 days (fraction); higher = more cells survive
# [1] = compound: C1=CC2=C(C=C(C(=C2N=C1)O)N=NC3=CC4=C(C=C3)C=C(C=C4)S(=O)(=O)O)S(=O)(=O)O + Cc1nc(NC(=O)N2CCC[C@H]2C(N)=O)sc1-c1ccnc(C(C)(C)C(F)(F)F)c1 [Alpelisib] (partner 2 µM)
# In short: (§1)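 The day after seeding in 1536-well plates, lung cancer cell lines were treated by pin tool with a single drug, or with a fixed anchor-drug dose together with five library-drug doses (not always all listed) in √10 steps. After 5 days, a combined fix-and-stain solution (final 0.05% Triton X-100, 1% formaldehyde, 1 ug/ml Hoechst) was added. Nuclei counted on 4× images gave relative viability as treated counts over vehicle counts, reported as the median of duplicate plates.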
# [2] = compound: C1=CC2=C(C=C(C(=C2N=C1)O)N=NC3=CC4=C(C=C3)C=C(C=C4)S(=O)(=O)O)S(=O)(=O)O + Cc1nc(Nc2ncc(C(=O)Nc3c(C)cccc3Cl)s2)cc(N2CCN(CCO)CC2)n1 [Dasatinib] (partner 0.075 µM)
# In short: as §1
# [3] = compound: O=C(NC1CCNCC1)c1n[nH]cc1NC(=O)c1c(Cl)cccc1Cl [AT-7519] + COc1cc2c(Oc3ccc(NC(=O)C4(C(=O)Nc5ccc(F)cc5)CC4)cc3F)ccnc2cc1OCCCN1CCOCC1 [Foretinib] (partner 0.25 µM)
# In short: as §1
# [4] = compound: O=C(NC1CCNCC1)c1n[nH]cc1NC(=O)c1c(Cl)cccc1Cl [AT-7519] + C[C@@H](Oc1cc(-c2cnn(C3CCNCC3)c2)cnc1N)c1c(Cl)ccc(F)c1Cl [Crizotinib] (partner 1 µM)
# In short: as §1
Cell Line,relative viability ([1]; first compound 0.08 µM),relative viability ([1]; first compound 0.253 µM),relative viability ([1]; first compound 0.8 µM),relative viability ([1]; first compound 2.53 µM),relative viability ([1]; first compound 8 µM),relative viability ([2]; first compound 0.08 µM),relative viability ([2]; first compound 0.253 µM),relative viability ([2]; first compound 0.8 µM),relative viability ([2]; first compound 2.53 µM),relative viability ([2]; first compound 8 µM),relative viability ([3]; first compound 0.01 µM),relative viability ([3]; first compound 0.03162 µM),relative viability ([3]; first compound 0.3162 µM),relative viability ([3]; first compound 1 µM),relative viability ([4]; first compound 0.01 µM),relative viability ([4]; first compound 0.03162 µM),relative viability ([4]; first compound 0.3162 µM),relative viability ([4]; first compound 1 µM)
NCI-H322M,0.917,0.82,0.687,0.846,0.814,0.252,0.251,0.234,0.27,0.274,1.01,0.932,0.511,0.456,0.848,0.93,0.892,0.901
NCI-H358,0.902,0.927,0.776,0.833,0.354,0.149,0.183,0.153,0.184,0.168,0.646,0.496,0.492,0.194,0.544,0.544,0.458,0.0912
NCI-H441,0.823,0.823,,0.736,1.09,0.574,0.587,0.568,0.59,0.679,1.04,1.01,0.949,0.63,0.656,0.905,0.673,0.428
NCI-H460,0.545,0.456,0.511,0.5,0.291,0.515,0.536,0.492,0.489,0.522,1.05,0.821,1.05,0.233,0.858,0.9,0.608,0.0144
NCI-H520,0.907,0.846,0.923,0.869,0.995,0.185,0.206,0.204,0.157,0.176,0.922,0.624,0.718,0.593,0.753,0.768,0.595,0.269
NCI-H596,0.48,0.454,0.575,0.475,0.482,0.651,0.685,0.554,0.727,0.703,0.922,0.834,0.897,0.731,0.828,0.962,1.05,0.87
NCI-H647,1.32,1.19,1.11,1.17,0.984,0.212,0.169,0.151,0.143,0.194,1.27,1.21,0.985,0.889,0.812,0.873,0.965,0.411
NCI-H650,1.25,1.11,1.08,1.08,1.09,0.412,0.433,0.496,0.462,0.342,1.04,0.923,1.01,1.08,0.788,0.797,0.733,0.625
NCI-H661,0.746,0.467,0.54,0.703,0.967,0.938,0.877,0.903,0.93,0.817,1.05,0.875,1.05,0.468,0.978,1.22,1.16,1.04
NCI-H727,0.547,0.578,0.537,0.609,0.567,0.454,0.39,0.352,0.412,0.345,1.14,0.691,0.769,0.297,0.968,0.875,0.6,0.27
NCI-H838,1.22,0.959,1.05,1.05,0.97,0.292,0.25,0.283,0.3,0.29,1.07,1.02,0.886,0.527,0.805,0.826,0.571,0.194
NCI-H1355,0.94,0.838,0.767,0.905,0.956,0.764,0.754,0.708,0.77,0.665,0.906,0.989,1.02,0.854,1.1,1.02,1.13,0.943
NCI-H1437,1.06,0.995,0.935,0.94,0.929,0.351,0.402,0.43,0.383,0.301,1.3,1.32,1.24,1.01,0.93,1.06,0.9,0.361
NCI-H1563,0.931,0.94,1.07,1.11,1.1,0.455,0.478,0.492,0.397,0.418,0.846,0.867,0.948,0.957,0.857,0.809,1.02,0.702
NCI-H1651,1.09,1.02,1.16,1.08,0.895,0.451,0.3,0.416,0.406,0.466,0.855,0.786,0.803,0.683,0.858,0.846,0.909,0.847
NCI-H1666,0.985,0.837,1.05,0.994,1.04,0.866,0.755,0.793,0.816,0.741,0.839,0.77,0.927,0.647,0.902,0.972,0.726,0.604
NCI-H1734,0.746,0.692,0.636,0.638,0.689,0.583,0.346,0.428,0.44,0.48,0.897,0.809,0.718,0.429,0.662,0.724,0.544,0.305
NCI-H1755,1.02,0.874,0.933,0.949,0.956,0.483,0.475,0.455,0.433,0.536,0.947,0.944,0.813,0.878,0.837,1.03,0.935,0.688

Cell Line,relative viability ([1]; first compound 0.08 µM),relative viability ([1]; first compound 0.253 µM),relative viability ([1]; first compound 0.8 µM),relative viability ([1]; first compound 2.53 µM),relative viability ([1]; first compound 8 µM),relative viability ([2]; first compound 0.08 µM),relative viability ([2]; first compound 0.253 µM),relative viability ([2]; first compound 0.8 µM),relative viability ([2]; first compound 2.53 µM),relative viability ([2]; first compound 8 µM),relative viability ([3]; first compound 0.01 µM),relative viability ([3]; first compound 0.03162 µM),relative viability ([3]; first compound 0.3162 µM),relative viability ([3]; first compound 1 µM),relative viability ([4]; first compound 0.01 µM),relative viability ([4]; first compound 0.03162 µM),relative viability ([4]; first compound 0.3162 µM),relative viability ([4]; first compound 1 µM)
NCI-H1915,1.09,1.05,1.08,1.09,1.06,0.311,0.321,0.29,0.316,0.314,1.07,1.1,1.07,0.807,0.933,0.926,0.793,0.741
NCI-H1944,0.842,0.718,0.832,0.858,0.838,0.222,0.244,0.201,0.212,0.206,0.899,0.855,0.84,0.662,1.18,1.34,0.926,0.862
NCI-H1975,0.741,0.653,0.603,0.645,0.649,0.388,0.356,0.343,0.4,0.388,0.982,0.953,0.863,0.189,1.09,0.973,0.877,0.206
NCI-H1993,0.71,0.682,0.747,0.705,0.701,0.579,0.648,0.633,0.594,0.566,0.786,0.842,0.809,0.594,0.846,0.82,0.813,0.577
NCI-H2009,1.19,1.05,1.1,1.16,1.1,0.261,0.275,0.288,0.313,0.283,1.33,1.18,1.27,0.686,1.21,1.07,1.12,0.295
NCI-H2023,0.606,0.671,0.636,0.564,0.624,0.689,0.622,0.558,0.648,0.541,0.962,0.914,1.05,0.459,0.702,0.697,0.605,0.125
NCI-H2085,1.08,0.989,1.05,1,0.913,0.277,0.253,0.254,0.208,0.291,0.932,0.84,0.888,0.874,0.762,0.832,0.696,0.553
NCI-H2087,0.938,0.888,1.08,0.977,0.989,0.962,0.872,0.715,0.847,0.884,1.14,1.09,1.07,0.295,0.801,0.868,0.894,0.171
NCI-H2126,0.834,0.738,0.779,0.724,0.768,0.711,0.645,0.64,0.713,0.693,1.08,1.24,0.838,1.12,1.07,1.05,0.931,1
NCI-H2170,0.872,0.802,0.78,0.82,0.76,0.636,0.574,0.659,0.633,0.55,1.09,1.03,1.04,0.958,1.16,1.26,1.18,1.18
NCI-H2228,0.687,0.787,0.778,0.655,0.695,0.639,0.469,0.464,0.514,0.49,0.833,0.789,0.814,0.595,0.549,0.379,0.403,0.313
NCI-H2347,1.03,0.995,1.07,1.07,1.06,0.317,0.316,0.333,0.343,0.247,0.738,0.902,0.8,0.819,0.627,0.706,0.645,0.573
NCI-H2405,0.805,0.758,0.838,0.886,0.722,0.146,0.226,0.208,0.201,0.219,1.04,1.11,1.01,0.628,0.794,0.847,0.827,0.598
NCI-H3122,0.891,0.795,0.719,0.732,0.76,0.954,0.741,0.716,0.882,0.0807,1.07,0.968,0.983,0.465,0.272,0.277,0.241,0.208
PC-3 [JPC-3],1.11,1.02,0.971,1.04,0.998,1.11,0.98,1.03,1.05,1,1.03,1.05,1.03,1.06,1.09,0.99,0.962,0.95
PC-14,1.03,0.875,0.891,0.994,0.967,0.257,0.288,0.296,0.31,0.281,0.889,0.856,0.928,0.915,0.755,0.911,0.818,0.811
RERF-LC-KJ,0.907,0.842,0.795,0.818,0.843,0.803,0.965,0.943,0.958,0.888,0.939,0.813,0.879,0.921,0.802,0.738,0.963,0.806

# — the supplement of paper PMC10307832
